How the values were obtained:
[1] = DBP release from liquid PDMS emulsion droplets (bare or silica nanoparticle-coated) into MilliQ water, sink conditions; assay type: physicochemical; conditions: for release rate constant (interfacial transport): hydrophobic nanoparticle-coated liquid PDMS droplets; for activation energy (Ea) for crossing the interfacial barrier: liquid PDMS droplets, Arrhenius, 22-37° C.
Procedure: FIG. 7 is a graph of Ln (1−Mt/M0) versus time for DBP release profiles from hydrophobic nanoparticle-coated liquid PDMS emulsion (φ=0.01) containing 0.025 wt % DBP, 900 ml MQ water as dissolution medium, where […]10^−3M NaCl; ⋄10^−2 M NaCl; Δ10^−1 M NaCl;
FIG. 8 is a graph showing Arrhenius plots for DBP release profiles from hydrophobic coated liquid PDMS emulsion droplets (φ=0.01) containing 0.025 wt % DBP, 900 ml MQ water as dissolution medium, where […]10^−1 M NaCl; ⋄10^−3M NaCl;
In experiments, dibutylphthalate (DBP) was chosen as a model drug because it is a liquid that is poorly soluble but readily miscible with PDMS. Release profiles of DBP were determined from both bare droplets (i.e. droplets not coated with nanoparticles) and coated droplets (i.e. droplets coated with hydrophilic particles and from droplets coated with hydrophobic particles).
(§1) DBP was incorporated into the PDMS droplets during the synthesis step outlined in Example 3. A modification of the method reported by Obey, T. M. and Vincent, B., (1994), Journal of Colloid Interface Science, 163:454-463 and Goller, M. I. et al., (1997), Physiochemical and Engineering Aspects, 123-124 and 183-193 (without dialysis) was employed (herein incorporated by reference). PDMS droplets were prepared according to Example 3. A further batch of cross-linked PDMS droplets were prepared using the same procedure as for liquid droplets except that the mixtures of monomer and cross-linking trimer DEDMS:TEMS (tritethoxymethylsilane) at ratios 1:0.1-1 were used instead of pure monomer. The cross-linking level of the droplets prepared ranged from 0, 10, 20, 30, 40 to 50%.
(§2) Bare and nanoparticle-coated droplet samples were prepared by mixing 10 ml of the prepared emulsions with 10 ml of sonicated MilliQ water and silica aqueous dispersions, respectively. Salt concentrations were adjusted from between 10^−4 to 10^−1 M NaCl in order to control the nanoparticle layer structure as described above.
The release rate is even more retarded in the presence of a thick interfacial particle wall prepared at 10^−1 M NaCl. Thus, depending on salt concentration, hydrophobic silica nanoparticle coatings can provide a permeable or semi-permeable barrier.
The activation energy for crossing the interfacial barrier was determined using an Arrhenius approach. Release profiles for droplets coated at 10^−3 M NaCl and 10^−1 M NaCl were determined at four temperatures: 22° C., 27° C., 32° C. and 37° C. Kinetic rate constants were determined for each temperature from equation A above and from the plots Ln k vs. 1/T (FIG. 8) the activation energies (Ea) were calculated:
Aqueous solutions containing 1% diethoxy-dimethyl-silane (DEDMS), which was previously mixed with 0, 0.025, 0.1 and 0.25 wt % DBP in a nitrogen gas atmosphere, and 0.1% ammonia were sealed under nitrogen gas in a 250 ml reaction vessel, shaken vigorously for 30 seconds, and than tumbled at 30 rpm and 25° C. for 18 hours.

[2] = DBP release from cross-linked PDMS emulsion droplets (bare or silica nanoparticle-coated) into MilliQ water; assay type: physicochemical
Procedure: (§3) FIG. 12 is a graph showing DBP release profiles from cross-linked PDMS emulsion droplets (φ=0.01) containing 0.025 wt % DBP, 900 ml MQ water as dissolution medium, where ⋄ bare PDMS droplets and PDMS droplets coated by hydrophobic silica nanoparticles: […]10^−4M NaCl; Δ10^−3M NaCl; ◯10^−1 M NaCl;
as §3, with “FIG. 13” for “FIG. 12”, “showing Ln ([…]) versus time for drug” for “showing DBP”, “where ◯” for “where ⋄”, “silica nanoparticles;” for “silica nanoparticles:”
as §3, with “15” for “12”, “0.25” for “0.025”, “DBP in emulsions,” for “DBP,”, “[…]10^−4 M” for “[…]10^−4M”, “Δ10^−3 M” for “Δ10^−3M”
as §1, §2
Cross-linked droplets (40% cross-linked) were chosen for study due to the fact that DBP partitioning coefficients were the highest at this cross-linking level, i.e. entrapment of DBP was the highest. […] Hydrophilic silica nanoparticle-coated capsules (created at 10^−2 M NaCl) and permeable, hydrophobic silica nanoparticle-coated capsules (created at 10^−4 M NaCl) have no effect on drug dissolution as opposed to semi-permeable hydrophilic/hydrophobic silica nanoparticle coatings around capsules (created at 10^−3-10^−1 M NaCl).
The rate limiting step for drug release from bare cross-linked droplets is diffusion through the internal matrix, therefore the diffusion-limited model is applicable (FIG. 12). Good linear fits were obtained for the first 120 minutes of release (FIG. 13). Calculated diffusion coefficients are presented in the table of FIG. 14 and are in agreement with typical values for drug diffusion in gels (e.g. 4.8 to 6.5 nm^2s^−1).

[3] = assay type: physicochemical
Procedure: FIG. 10 is a graph showing DBP release profiles in 900 ml MQ water: pure DBP added: 1.1 mg/100 ml and DBP 0.1% wt in PDMS emulsion droplets (φ=0.01), where ⋄ bare liquid PDMS droplets; □ pure DBP; Δ pure DBP with hydrophilic silica nanoparticles; ◯ pure DBP with hydrophobic silica nanoparticles; * PDMS droplets coated by hydrophilic silica (10^−2 M NaCl); x PDMS droplets coated by hydrophobic silica nanoparticles (10^−4 M NaCl); + PDMS droplets coated by hydrophobic silica nanoparticles (10^−1 M NaCl); the dotted line corresponds to the maximal DBP concentration that can be achieved in the dissolution medium;
FIG. 11 is a graph of DBP release profiles in 900 ml MQ water, pure DBP added: 2.8 mg/100 ml and DBP (0.25% wt) in PDMS emulsion droplets (φ=0.01): ⋄ bare liquid PDMS droplets; □ pure DBP; Δ pure DBP with hydrophilic silica nanoparticles; ◯ pure DBP with hydrophobic silica nanoparticles; * PDMS droplets coated by hydrophilic silica nanoparticles (10^−2 M NaCl); x PDMS droplets coated by hydrophobic silica nanoparticles (10^−4 M NaCl); + PDMS droplets coated by hydrophobic silica nanoparticles (10-1 M NaCl); dotted line correspond to the maximal DBP concentration that can be achieved in the dissolution medium;
However, the dissolution rate is increased when DBP is incorporated into PDMS emulsion droplets.
Similar trends of increased solubility rate occur when the total DBP concentration is well above the solubility limit (2.8 mg/100 ml) (FIG. 11). The observed increase in solubility of DBP is even more evident giving rise to supersaturated solutions. The intensity and duration of the “supersaturation” effect is much more pronounced for hydrophobic silica coated droplets. For hydrophilic particles, the peak in the soluble DBP concentration is at a maximum after 2 hours and then subsequently the soluble amount of DBP decreases within the next 6 hours and eventually reduces back to the solubility limit (FIG. 11).

## CCCCOC(=O)c1ccccc1C(=O)OCCCC [DBP, dibutylphthalate]
[1]; bare liquid PDMS droplets, drug concentration significantly below its solubility limit in water
  drug release from within the bare droplets: rapid and complete
[1]; at 10^-1 M NaCl
  release rate constant (interfacial transport): 0.05 nm^2s^-1
[1]; at 10^-3 and 10^-2 M NaCl
  release rate constant (interfacial transport): 0.3 nm^2s^-1
[1]; liquid PDMS droplets coated with hydrophobic silica nanoparticles at 10^-3 and 10^-2 M NaCl, 0.025 wt % DBP
  half release time: approximately 18 hours
[1]; nanoparticle layer prepared at 10^-1 M NaCl
  activation energy (Ea) for crossing the interfacial barrier: 630 kJmol^-1
[1]; nanoparticle layer prepared at 10^-3 M NaCl
  activation energy (Ea) for crossing the interfacial barrier: 580 kJmol^-1
[2]; bare cross-linked droplets
  activation energy for drug diffusion: 127±15 kJmol^-1
[2]; cross-linked PDMS droplets, 0.025 wt % DBP
  time for release process to reach equilibrium: approximately 2 hours
[2]; cross-linked droplets with hydrophobic silica nanoparticle coating, first value given
  activation energy for drug diffusion: 155 kJmol^-1
[2]; cross-linked droplets with hydrophobic silica nanoparticle coating, first value given (salt level not stated, presumably 10^-3 M NaCl)
  diffusion coefficient: 3.2 nm^2s^-1
[2]; cross-linked droplets with hydrophobic silica nanoparticle coating, second value given
  activation energy for drug diffusion: 177±25 kJmol^-1
[2]; cross-linked droplets with hydrophobic silica nanoparticle coating, second value given (salt level not stated, presumably 10^-1 M NaCl)
  diffusion coefficient: 2.4±0.5 nm^2s^-1
[2]; cross-linked droplets, DBP concentration above the solubility limit (0.25 wt %), first 90 minutes
  diffusion coefficient: 3.5±0.5 nm^2s^-1
[2]; cross-linked droplets, bare and coated with permeable silica nanoparticle coatings at 10^-4 M NaCl
  amount of DBP loaded still remaining in the droplets after 2 hours: 25%
[2]; cross-linked droplets, silica coating at 10^-1 M NaCl
  amount of DBP loaded still remaining in the droplets after 2 hours: 46%
[2]; cross-linked droplets, silica coating at 10^-3 M NaCl
  amount of DBP loaded still remaining in the droplets after 2 hours: 37%
[3]
  time after which amount in solution reduces to the normal solubility limit (duration of supersaturation): 10 h
  time of peak soluble DBP concentration: 2 h
  time to achieve the equilibrium solubility level: approximately 20 hours
